Data taken from patent EP4786486A1, “PEPTIDES FOR TREATING CARDIAC DISEASES” (Universidad Complutense De Madrid, priority 2023, dated 2025).
Where a SMILES comes first, the peptide text is derived from it. The star is where a group is joined. FITC = O=C1OC2(c3ccc(O)cc3Oc3cc(O)ccc32)c2ccc(NC(=S)*)cc21; Palmitoyl = CCCCCCCCCCCCCCCC(=O)*

What was measured:
human Nav1.5 channels = target: T1, human Nav1.5 channels (Homo sapiens, UniProt Q14524); test: INa density, whole-cell patch-clamp in CHO cells co-transfected with Nav1.5 and the cDNA encoding the peptide; format: cell-based; conditions: vs. cells transfected only with Nav1.5 channels, various membrane potentials, P<0.05
T1 construct: expressed in transfected cells; host or cells: CHO (Chinese hamster ovary) cells
Method: (§1) To analyse the effect of the peptides designed in example 1 on INa and IK1, the cDNA that encodes SEQ ID NO: 3 or SEQ ID NO: 4, described in SEQ ID NO: 5 and 20, respectively, was cloned into a pcDNA3.1^(+)® vector (Invitrogen) for transfection of Chinese hamster ovary (CHO) cells that were in turn transfected with the cDNA that encodes the human Nav1.5 channels (SEQ ID NO: 21). The CHO cells were further co-transfected with the EBO-pcD leu 2 vector (0.5 µg), which encodes the expression of the CD8 surface antigen. The subsequent addition of anti-CD8 antibody, bonded to Dynabeads M450® microspheres, allowed the cells that had been transfected to be identified. […] The currents were recorded at 20-22°C using an Axopatch 200B amplifier, filtered at half the sampling frequency and stored in a computer for further analysis. […] The capacitive current artefacts generated after the application of pulses from 0 mV to +10 mV were recorded at 50 kHz (filtered at 10 kHz) to calculate the capacitance of the cell, the access resistance and the input impedance. […] INa was recorded by applying 50 ms pulses from a holding potential of -120 mV to potentials between -80 and +50 mV in 5 mV increments. […]

HEK293 cells = test: Access to the cell interior of fluorescent peptides, fluorescence microscopy; format: cell-based; conditions: 24 hours, 10 µM, green fluorescent signal
[1] = Conformational study by circular dichroism (helicity); format: physicochemical; conditions: for Helicity in 60:40 H2O/TFE (%) / Helicity in H2O (%): circular dichroism, 10 µM, 5°C
Method: Circular dichroism spectra were recorded in aqueous solution and in a 60:40 H2O:trifluoroethanol (TFE) mixture. The concentration used was 10 µM and the temperature (T) was adjusted to 5°C. Measurements were made between 190 and 250 nm using a 0.1 cm optical pitch cell. The experiments were carried out at a scanning rate of 50 nm/min, a response time of 2 s and a bandwidth of 1 nm. The spectra obtained are the average of 4 sweeps to which the baseline was corrected.
To calculate helicity, the equation [θ]222/[θ]max. was used, where [θ]max = (-44000+250T) ([…]). As a finite length correction value (k), the value of k = 4 was taken, while n refers to the number of residues in the peptides. Table 6. Helicity observed by circular dichroism for the peptides studied.

[2] = tested on: human cardiac Nav1.5 channels; test: INa by whole-cell patch-clamp in CHO cells incubated with synthetic peptide; format: cell-based; conditions: CHO cells expressing Nav1.5, incubated 24 hours, 10 µM, vs untreated control cells
Method: as §1

[3] = Stability in human blood serum, UPLC-MS; format: in vitro ADME; conditions: 37°C
Method: A 1 mM dilution of the peptide in water was prepared and 0.5 ml was taken and mixed with 0.5 ml of human serum. The resulting solution was incubated for 72 hours at 37°C. After 24 hours and 72 hours, 120 µl aliquots were taken and treated with 20 µl trifluoroacetic acid to precipitate the proteins. After 30 minutes at 4°C, the mixture was centrifuged at 13000 g and 4°C. The supernatant, once filtered, was analysed by UPLC-MS using a C18 Bridge column (3.0 mm x 50 mm, 2.5 µm) and a gradient of 15 and 50% CH3CN (0.1% formic acid) in H2O (0.1% formic acid) over 5 minutes.

T1 sequence (Q14524 1-2015 isoform Q14524-2): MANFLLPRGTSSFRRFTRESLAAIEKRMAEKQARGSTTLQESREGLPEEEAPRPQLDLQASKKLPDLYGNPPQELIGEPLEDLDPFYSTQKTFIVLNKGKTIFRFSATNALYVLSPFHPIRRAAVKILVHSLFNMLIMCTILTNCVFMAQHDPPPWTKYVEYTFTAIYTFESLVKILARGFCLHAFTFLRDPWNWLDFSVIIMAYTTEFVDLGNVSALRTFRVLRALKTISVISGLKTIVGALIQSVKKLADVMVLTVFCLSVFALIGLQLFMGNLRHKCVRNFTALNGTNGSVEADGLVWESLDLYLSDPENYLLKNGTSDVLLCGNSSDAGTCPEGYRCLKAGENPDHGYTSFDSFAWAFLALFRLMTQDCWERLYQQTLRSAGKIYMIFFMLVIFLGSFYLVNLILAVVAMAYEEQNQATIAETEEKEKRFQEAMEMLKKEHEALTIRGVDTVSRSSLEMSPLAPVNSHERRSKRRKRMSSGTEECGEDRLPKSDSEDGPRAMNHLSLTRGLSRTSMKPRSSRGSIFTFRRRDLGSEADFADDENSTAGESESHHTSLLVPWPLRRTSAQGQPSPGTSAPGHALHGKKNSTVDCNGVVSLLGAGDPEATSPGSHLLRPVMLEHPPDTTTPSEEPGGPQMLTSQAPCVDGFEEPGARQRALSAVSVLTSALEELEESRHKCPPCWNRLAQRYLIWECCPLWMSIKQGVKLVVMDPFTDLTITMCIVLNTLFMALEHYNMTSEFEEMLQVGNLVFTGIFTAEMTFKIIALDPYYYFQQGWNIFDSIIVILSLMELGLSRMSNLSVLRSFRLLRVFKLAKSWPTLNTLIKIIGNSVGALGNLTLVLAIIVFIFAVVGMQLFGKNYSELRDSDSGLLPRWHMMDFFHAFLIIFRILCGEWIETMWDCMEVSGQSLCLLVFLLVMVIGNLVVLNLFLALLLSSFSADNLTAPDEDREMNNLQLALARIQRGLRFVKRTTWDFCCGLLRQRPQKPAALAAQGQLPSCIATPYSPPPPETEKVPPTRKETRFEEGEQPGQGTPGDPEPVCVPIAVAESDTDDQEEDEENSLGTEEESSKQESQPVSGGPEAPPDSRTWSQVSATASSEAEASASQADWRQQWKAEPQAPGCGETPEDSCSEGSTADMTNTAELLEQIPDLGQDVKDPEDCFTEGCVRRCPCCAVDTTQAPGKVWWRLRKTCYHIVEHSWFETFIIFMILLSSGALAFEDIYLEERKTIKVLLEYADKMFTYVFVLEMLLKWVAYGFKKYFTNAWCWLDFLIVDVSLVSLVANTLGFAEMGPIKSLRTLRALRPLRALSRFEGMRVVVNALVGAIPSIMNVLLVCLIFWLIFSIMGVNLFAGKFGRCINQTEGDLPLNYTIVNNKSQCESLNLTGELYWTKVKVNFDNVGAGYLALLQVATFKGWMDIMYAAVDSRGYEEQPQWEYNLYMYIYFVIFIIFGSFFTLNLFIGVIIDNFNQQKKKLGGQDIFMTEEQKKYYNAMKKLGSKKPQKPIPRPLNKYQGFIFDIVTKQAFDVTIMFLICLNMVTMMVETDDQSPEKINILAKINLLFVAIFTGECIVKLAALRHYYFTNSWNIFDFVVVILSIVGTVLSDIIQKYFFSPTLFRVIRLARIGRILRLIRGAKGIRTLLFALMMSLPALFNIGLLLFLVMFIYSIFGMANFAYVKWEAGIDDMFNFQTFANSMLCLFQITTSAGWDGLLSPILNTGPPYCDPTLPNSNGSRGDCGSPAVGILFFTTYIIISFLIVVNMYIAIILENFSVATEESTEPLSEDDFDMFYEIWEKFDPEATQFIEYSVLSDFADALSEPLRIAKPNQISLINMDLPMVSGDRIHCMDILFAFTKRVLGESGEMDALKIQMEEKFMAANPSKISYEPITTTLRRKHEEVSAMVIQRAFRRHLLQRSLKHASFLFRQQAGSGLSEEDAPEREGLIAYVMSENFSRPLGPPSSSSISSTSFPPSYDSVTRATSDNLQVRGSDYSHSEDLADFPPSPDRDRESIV

## EKRMAEKQARGSTTL (listed as Homo sapiens) [SEQ ID NO: 4, 15-amino acid peptide, amino acids 25-39 of human Nav1.5]
Human Nav1.5 channels
  density of INa: did not

## CC[C@H](C)[C@H](NC(=O)[C@H](C)NC(=O)[C@H](C)NC(=O)[C@H](CC(C)C)NC(=O)[C@H](CO)NC(=O)[C@H](CCC(=O)O)NC(=O)[C@H](CCCNC(=N)N)NC(=O)[C@@H](NC(=O)[C@H](Cc1ccccc1)NC(=O)[C@H](CCCNC(=N)N)NC(C)=O)[C@@H](C)O)C(=O)N[C@@H](CCC(=O)O)C(=O)N[C@@H](CCCCNC(=S)Nc1ccc2c(c1)C(=O)OC21c2ccc(O)cc2Oc2cc(O)ccc21)C(N)=O [Ac-SEQ ID NO: 23(SF)-NH2, Ac-RFTRESLAAlEK(SF)-NH2] (Ac-RFTRESLAAIEK(FITC)-NH2)
HEK293 cells
  ability to penetrate into the cell interior: not able to penetrate

## Ac-FTRESLAAIEK-NH2 [Ac-SEQ ID NO: 25-NH2, Ac-FTRESLAAIEK-NH2]
[1]
  Helicity in 60:40 H2O/TFE (%): 46.2%
  Helicity in H2O (%): 10.7%
[1]; compared with Ac-SEQ ID NO: 3-NH2
  increase in helicity in H2O: 8%

## Pal-FTRESLAAIEK-NH2 (Palmitoyl-FTRESLAAIEK-NH2; SMILES CCCCCCCCCCCCCCCC(=O)N[C@@H](Cc1ccccc1)C(=O)N[C@H](C(=O)N[C@@H](CCCNC(=N)N)C(=O)N[C@@H](CCC(=O)O)C(=O)N[C@@H](CO)C(=O)N[C@@H](CC(C)C)C(=O)N[C@@H](C)C(=O)N[C@@H](C)C(=O)N[C@H](C(=O)N[C@@H](CCC(=O)O)C(=O)N[C@@H](CCCCN)C(N)=O)[C@@H](C)CC)[C@@H](C)O) [Pal-SEQ ID NO: 25-NH2]
[2]
  INa: statistically significantly increase INa

## Ac-RFTRESLAAIE-NH2 [Ac-SEQ ID NO: 3-NH2, Ac-RFTRESLAAIE-NH2]
[1]
  Helicity in 60:40 H2O/TFE (%): 32.3%
  Helicity in H2O (%): 2.7%

## Pal-RFTRESLAAIEK-NH2 (Palmitoyl-RFTRESLAAIEK-NH2; SMILES CCCCCCCCCCCCCCCC(=O)N[C@@H](CCCNC(=N)N)C(=O)N[C@@H](Cc1ccccc1)C(=O)N[C@H](C(=O)N[C@@H](CCCNC(=N)N)C(=O)N[C@@H](CCC(=O)O)C(=O)N[C@@H](CO)C(=O)N[C@@H](CC(C)C)C(=O)N[C@@H](C)C(=O)N[C@@H](C)C(=O)N[C@H](C(=O)N[C@@H](CCC(=O)O)C(=O)N[C@@H](CCCCN)C(N)=O)[C@@H](C)CC)[C@@H](C)O) [Pal-SEQ ID NO: 23-NH2]
[2]
  INa: statistically significantly increase INa

## Ac-FTRESLAAIEKR-NH2 [Ac-SEQ ID NO: 26-NH2, Ac-FTRESLAAIEKR-NH2]
[1]
  Helicity in 60:40 H2O/TFE (%): 35.5%
  Helicity in H2O (%): 10.8%
[3]; human blood serum diluted 50:50 with water, human blood serum/H2O (50:50), after 24 hours of incubation, read-out: peptide remained unchanged
  remaining at 24 h, 0.5 mM: 82%
[3]; human blood serum, estimated taking into account serum concentration of 50%
  half-life: 27 h

## CCCCCCCCCCCCCCCC(=O)N[C@@H](CCCNC(=N)N)C(=O)N[C@@H](Cc1ccccc1)C(=O)N[C@H](C(=O)N[C@@H](CCCNC(=N)N)C(=O)N[C@@H](CCC(=O)O)C(=O)N[C@@H](CO)C(=O)N[C@@H](CC(C)C)C(=O)N[C@@H](C)C(=O)N[C@@H](C)C(=O)N[C@H](C(=O)N[C@@H](CCC(=O)O)C(=O)N[C@@H](CCCCNC(=S)Nc1ccc2c(c1)C(=O)OC21c2ccc(O)cc2Oc2cc(O)ccc21)C(N)=O)[C@@H](C)CC)[C@@H](C)O [Pal-SEQ ID NO: 23(SF)-NH2, Pal-RFTRESLAAIEK(SF)-NH2] (Palmitoyl-RFTRESLAAIEK(FITC)-NH2)
HEK293 cells
  ability to penetrate into the cell interior: good ability to penetrate
